From ChEMBL document CHEMBL1201862, “PubChem BioAssay data set” (2004)
Calls of active or inactive are those of the source.

Tests used:
[1] = Luminescence Cell-Based Dose Response HTS to Identify Activators of Luciferase Translation or Activity in H4 […] Cells. [Related pubchem assays: 1829 (Project Summary), 1814 (Primary HTS)]; format: functional
[2] = Luminescence Cell-Based Dose Confirmation HTS to Identify Activators of 5'UTR Stem-Loop Driven Alpha-Synuclein mRNA Translation in H4 Neuroglioblastoma Cells. [Related pubchem assays: 1829 (Project Summary), 1814 (Primary HTS)]; format: functional
H4 = test: Luminescence Cell-Based Dose Response HTS to Identify Activators of 5'UTR Stem-Loop Driven Prion Protein mRNA Translation in H4 Neuroglioblastoma Cells. [Related pubchem assays: 1829 (Project Summary), 1814 (Primary HTS)]; format: functional; conditions: Homo sapiens
[3] = HIV-1 Vif–A3G interaction blockers – biochemical, TR-FRET, GST-Vif 1-94, biotin-A3G peptide, dose response retest, primary screen (AID 1117319); format: functional;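 also: TR-FRET signal of purified GST-Vif binding a biotinylated A3G peptide; inhibitors lower the FRET signal by blocking Vif and A3G binding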
[4] = Dd2 parasite growth inhibition in erythrocytes – SYBR Green, dry powder samples, set 9, dose response (AID 1159568); format: functional, cell-based
[5] = P. falciparum Dd2 growth inhibitors, dose response, SYBR Green, cherry-picked samples (AID 1159567); format: functional, cell-based
[6] = Dd2 malaria parasite growth inhibition potency – SYBR Green, dry powder samples, dose response (AID 1159566); format: functional, cell-based;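 also: potency for growth inhibition with lower SYBR green DNA signal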
[7] = growth inhibition of yeast DHODH-expressing 3D7 parasites – SYBR Green, dry powder samples, dose response (AID 1159570); format: functional, cell-based;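 also: parasite growth measured after 72 hours of compound exposure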
[8] = growth inhibition of PfATP4-mutant resistant parasites – NITD609-resistant line, SYBR Green, dry powder, dose response (AID 1159571); format: functional, cell-based;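 also: parasites synchronized at ring stage by sorbitol before testing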
[9] = Reduced DLD-1 viability, concentration-response, CellTiter-Glo luminescence (AID 1117352); format: functional
[10] = cytotoxicity toward HCT116 cells – cell-based, CellTiter-Glo luminescence, IC50, dose response (AID 1117332); format: functional; conditions: HCT-116
[11] = cytotoxicity toward HT-29 cells – cell-based, CellTiter-Glo luminescence, IC50, dose response (AID 1117330); format: functional
[12] = cytotoxicity toward Colo320 cells – cell-based, CellTiter-Glo luminescence, IC50, dose response (AID 1117334); format: functional; conditions: COLO 320
[13] = HCT116 cell viability decrease, GSK3B pretreatment – CellTiter-Glo, IC50, dose response (AID 1117339); format: functional; conditions: HCT-116
[14] = SNU-C1 cell viability reduction, dose response, CellTiter-Glo luminescence (AID 1117323); format: functional, cell-based
[15] = rise of 4N DNA cells, HeLa – IC50, dose response (AID 1117351); format: functional, cell-based
[16] = rise of 2N DNA cells, HeLa – IC50, dose response (AID 1117349); format: functional, cell-based
[17] = RKO cell viability reduction, dose response, CellTiter-Glo luminescence (AID 1117322); format: functional
[18] = target: T1, Tyrosine-protein phosphatase non-receptor type 7 (Homo sapiens, UniProt P35236); test: HePTP tyrosine phosphatase activity blockers – biochemical, absorbance, leukemia target, primary screen (AID 521); format: functional
T1 sequence (P35236 whole entry): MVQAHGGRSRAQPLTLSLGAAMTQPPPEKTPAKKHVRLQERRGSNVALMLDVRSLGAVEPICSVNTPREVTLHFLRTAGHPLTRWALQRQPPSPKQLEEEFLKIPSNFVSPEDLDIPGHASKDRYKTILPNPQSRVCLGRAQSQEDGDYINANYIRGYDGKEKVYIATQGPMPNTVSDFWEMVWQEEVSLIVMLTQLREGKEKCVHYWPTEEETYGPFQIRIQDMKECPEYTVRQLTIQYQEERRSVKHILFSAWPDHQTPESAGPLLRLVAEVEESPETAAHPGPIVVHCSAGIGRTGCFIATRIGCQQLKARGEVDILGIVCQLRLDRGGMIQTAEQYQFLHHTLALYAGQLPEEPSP

[19] = Luminescence Cell-Based Dose Response to Identify Activators of Luciferase Translation or Activity in H4-C Neuroglioblastoma Cells. [Related pubchem assays: 1829 (Project Summary), 1814 (Primary HTS)]; format: functional
[20] = Luminescence Cell-Based Dose Confirmation to Identify Activators of 5'UTR Stem-Loop Driven Alpha-Synuclein mRNA Translation in H4 Neuroglioblastoma Cells. [Related pubchem assays: 1829 (Project Summary), 1814 (Primary HTS)]; format: functional
[21] = Luminescence Cell-Based Dose Response to Identify Activators of 5'UTR Stem-Loop Driven Prion Protein mRNA Translation in H4-C Neuroglioblastoma Cells. [Related pubchem assays: 1829 (Project Summary), 1814 (Primary HTS)]; format: functional
[22] = target: Induced myeloid leukemia cell differentiation protein Mcl-1 (Homo sapiens, UniProt Q07820); test: blockers of MCL1 binding to BIM peptide – biochemical, fluorescence polarization, BIM-BH3 peptide, 1536-well, dose response (AID 2217)
Sequence of Induced myeloid leukemia cell differentiation protein Mcl-1 (Q07820 whole entry): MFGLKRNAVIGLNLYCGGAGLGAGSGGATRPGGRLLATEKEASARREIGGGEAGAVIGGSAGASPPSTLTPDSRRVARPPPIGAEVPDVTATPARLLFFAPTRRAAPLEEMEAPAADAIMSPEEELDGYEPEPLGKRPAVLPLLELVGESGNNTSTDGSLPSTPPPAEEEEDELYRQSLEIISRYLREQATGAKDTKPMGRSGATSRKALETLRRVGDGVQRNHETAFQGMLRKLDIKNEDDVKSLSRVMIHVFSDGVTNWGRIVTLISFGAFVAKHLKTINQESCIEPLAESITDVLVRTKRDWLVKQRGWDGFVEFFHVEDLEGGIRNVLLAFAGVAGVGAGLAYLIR

Bcl-2-like protein 1 = Bcl-2-like protein 1 (Homo sapiens, UniProt Q07817); test: blockers of BCLXL peptide binding – biochemical, fluorescence polarization, 1536-well, selectivity assay for MCL1 inhibitor project, dose response (AID 2218)
Sequence of Bcl-2-like protein 1 (Q07817 whole entry): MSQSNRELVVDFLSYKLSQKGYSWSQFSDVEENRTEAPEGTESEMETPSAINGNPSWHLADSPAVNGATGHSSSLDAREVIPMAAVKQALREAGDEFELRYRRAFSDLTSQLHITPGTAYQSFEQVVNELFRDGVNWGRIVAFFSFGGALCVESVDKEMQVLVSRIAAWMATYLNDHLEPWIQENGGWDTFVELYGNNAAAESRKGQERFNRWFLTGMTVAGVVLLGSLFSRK

[23] = target: Dual specificity tyrosine-phosphorylation-regulated kinase 1A (Rattus norvegicus, UniProt Q63470); format: biochemical, Homo sapiens
[24] = viability of PTEN-deleted HCT116 cells – cell-based, HCT116 PTEN knockout, dose response (AID 1047); format: functional;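 also: HCT116 colon tumor cells with PTEN knocked out; cells exposed to compound for 60 hours before readout; potency for loss of cell viability measured by luminescence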
[25] = viability of HCT116 lacking mutant beta-catenin – cell-based, human colon tumor, dose response (AID 1045); format: functional;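 also: HCT116 colon tumor cells with beta catenin knocked out; cells exposed to compound for 60 hours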
[26] = viability loss of HPDE-C7K cells – cell-based, fluorescence, HTS, primary screen (AID 431); format: functional; conditions: Homo sapiens
[27] = HPDE-C7 pancreatic duct cell viability loss – fluorescence, HTS (AID 430); format: functional, cell-based; conditions: Homo sapiens
[28] = target: T2, DNA repair protein RAD52 homolog (Homo sapiens, UniProt P43351); format: functional, biochemical
T2 sequence (P43351 whole entry): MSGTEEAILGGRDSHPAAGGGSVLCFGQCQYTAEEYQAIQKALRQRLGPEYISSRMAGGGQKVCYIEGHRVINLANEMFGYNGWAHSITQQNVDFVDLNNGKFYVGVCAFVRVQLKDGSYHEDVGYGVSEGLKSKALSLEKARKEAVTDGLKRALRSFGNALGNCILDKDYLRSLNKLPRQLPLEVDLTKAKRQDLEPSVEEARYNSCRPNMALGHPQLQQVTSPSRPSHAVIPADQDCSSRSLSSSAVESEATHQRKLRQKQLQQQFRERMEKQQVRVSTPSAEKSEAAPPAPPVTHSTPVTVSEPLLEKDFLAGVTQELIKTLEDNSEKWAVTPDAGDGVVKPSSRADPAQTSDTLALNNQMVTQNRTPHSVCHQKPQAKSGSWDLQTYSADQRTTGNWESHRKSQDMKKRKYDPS

[29] = viability of uninfected HEp-2 cells – cell-based, HTS, cytotoxicity control for RSV inhibitor project, dose response (AID 2410); format: functional; conditions: human respiratory syncytial virus

**Q.** For `CCCn1c(O)nnc1Sc1nnnn1-c1ccccc1`, which EC50 [1] is on record?
**A.** The EC50 was 6.75 µM (active).

**Q.** What about the EC50 [2] of the same compound?
**A.** Its EC50 is 40.1 µM (active).

**Q.** And the EC50 (H4)?
**A.** Its EC50 is > 120 µM (not active).

**Q.** What about the IC50 [3] of the same compound?
**A.** Its IC50 is > 100 µM (active).

**Q.** With `COc1ccc(C#Cc2ccc3c(c2)O[C@@H](CN(C)C(=O)Nc2cccc(OC)c2)[C@@H](C)CN([C@H](C)CO)S3(=O)=O)cc1` as the compound, how does the AC50 [4] read?
**A.** Its AC50 is 466 nM (active).

**Q.** What about the AC50 [5] of the same compound?
**A.** The AC50 was 1.07 µM (active).

**Q.** What about the AC50 [6] of the same compound?
**A.** Its AC50 is 490 nM (active).

**Q.** And the AC50 [7]?
**A.** Its AC50 is 473 nM (active).

**Q.** What about the AC50 [8] of the same compound?
**A.** The AC50 was 494 nM (active).

**Q.** With `O=S(=O)(Nc1ccc(N2CCOCC2)cc1)c1ccccc1` as the compound, how does the IC50 [3] read?
**A.** Its IC50 is > 100 µM (active).

**Q.** Which IC50 [9] does the source give for `Nc1nc(Cl)nc2c1ncn2[C@@H]1O[C@H](CO)[C@@H](O)[C@@H]1F` [CLOFARABINE] here?
**A.** The IC50 was 164 nM (active).

**Q.** And the IC50 [10]?
**A.** The IC50 was 1 nM (active).

**Q.** What about the IC50 [11] of the same compound?
**A.** Its IC50 is > 20 µM (inactive).

**Q.** And the IC50 [12]?
**A.** The IC50 was > 20 µM (inactive).

**Q.** What about the IC50 [13] of the same compound?
**A.** Its IC50 is 1 nM (active).

**Q.** What about the IC50 [14] of the same compound?
**A.** The IC50 was > 20 µM (inactive).

**Q.** And the IC50 [15]?
**A.** The IC50 was > 10 µM (inactive).

**Q.** What about the IC50 [16] of the same compound?
**A.** The IC50 was > 10 µM (inactive).

**Q.** And the IC50 [17]?
**A.** Its IC50 is 1 nM (active).

**Q.** With `CC(C)(C)OC(=O)c1c(N)n(Cc2ccco2)c2nc3ccccc3nc12` as the compound, how does the IC50 [18] read?
**A.** Its IC50 is > 100 µM (not active).

**Q.** With `CC(C)Cc1ccc(/C=C/C(=O)N2CCOCC2)cc1` as the compound, how does the EC50 [1] read?
**A.** The EC50 was < 0.1 µM (inconclusive).

**Q.** And the EC50 [19]?
**A.** Its EC50 is 374 nM (active).

**Q.** What about the EC50 (H4) of the same compound?
**A.** The EC50 was 0.843 µM (active).

**Q.** And the EC50 [20]?
**A.** Its EC50 is 250 nM (active).

**Q.** And the EC50 [21]?
**A.** Its EC50 is 682 nM (active).

**Q.** Which IC50 [22] does the source give for `O=C(Cn1cnc2sc(-c3ccccc3)cc2c1=O)NCc1ccco1` here?
**A.** The IC50 was 5.16 µM (active).

**Q.** What about the IC50 (Bcl-2-like protein 1) of the same compound?
**A.** The IC50 was > 109 µM (not active).

**Q.** With `CN1CCN(c2cc3c(c4c2[nH]c2ccccc24)C(=O)CC(C)(C)C3)CC1` as the compound, how does the AC50 [23] read?
**A.** The AC50 was 7.77 µM (active).

**Q.** What about the EC50 [24] of the same compound?
**A.** The EC50 was 11.4 µM (active).

**Q.** What about the EC50 [25] of the same compound?
**A.** Its EC50 is 10.4 µM (active).

**Q.** What about the EC50 [26] of the same compound?
**A.** The EC50 was 12.9 µM (active).

**Q.** And the EC50 [27]?
**A.** Its EC50 is 13.2 µM (active).

**Q.** What about the AC50 [28] of the same compound?
**A.** Its AC50 is 9.48 µM (active).

**Q.** And the CC50 [29]?
**A.** The CC50 was 15.6 µM (active).
